Data as given in patent US6914045B2, “Glycopeptide antibiotics” (Wyeth Holdings Corporation, priority 2001, dated 2005).
≈ marks a conversion by molar mass, not a printed value.

Legend:
Experiment in all cases: in vitro antibacterial evaluation, MIC by broth dilution
Type in all cases: cell-based
Enterococcus sp. = details: broth dilution, 18 hours at 35° C.
How it was run: (§1)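 Inoculum 5×10^5 CFU/mL; concentrations 64 to 0.06 μg/mL; MIC defined as lowest inhibitory level. Conducted by broth dilution under NCCLS guidelines.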

Staphylococcus sp. = details: broth dilution, 18 hours at 35° C.
How it was run: as §1

Streptococcus sp. = details: broth dilution, 18 hours at 35° C.
How it was run: as §1

Escherichia coli = details: 18 hours at 35° C.

MIC Enterococcus avium (GC 4558) (Enterococcus sp.): 64 µg/mL (≈ 45.4 µM)
MIC Enterococcus faecalis (ATCC 29212) (Enterococcus sp.): 64 µg/mL (≈ 45.4 µM)
MIC Enterococcus faecalis (GC 2242) (Enterococcus sp.): 32 µg/mL (≈ 22.7 µM)
MIC Enterococcus faecalis (GC 4552) (Enterococcus sp.): 64 µg/mL (≈ 45.4 µM)
MIC Enterococcus faecalis (GC 4553) (Enterococcus sp.): 64 µg/mL (≈ 45.4 µM)
MIC Enterococcus faecalis (GC 4554) (Enterococcus sp.): 64 µg/mL (≈ 45.4 µM)
MIC Enterococcus faecium (GC 2243) (Enterococcus sp.): 64 µg/mL (≈ 45.4 µM)
MIC Enterococcus faecium (GC 4556) (Enterococcus sp.): 64 µg/mL (≈ 45.4 µM)
MIC Enterococcus faecium (GC 4557) (Enterococcus sp.): 4 µg/mL (≈ 2.84 µM)
MIC Enterococcus faecalis (ATCC 29212) (Enterococcus sp.; strain ATCC 29212): 64 µg/mL (≈ 45.4 µM)
MIC Enterococcus faecalis (GC 2242) (Enterococcus sp.; strain GC 2242): 32 µg/mL (≈ 22.7 µM)
MIC Enterococcus faecium (GC 2243) (Enterococcus sp.; strain GC 2243): 64 µg/mL (≈ 45.4 µM)
MIC Enterococcus faecalis (GC 4552) (Enterococcus sp.; strain GC 4552): 64 µg/mL (≈ 45.4 µM)
MIC Enterococcus faecalis (GC 4553) (Enterococcus sp.; strain GC 4553): 64 µg/mL (≈ 45.4 µM)
MIC Enterococcus faecalis (GC 4554) (Enterococcus sp.; strain GC 4554): 64 µg/mL (≈ 45.4 µM)
MIC Enterococcus faecium (GC 4556) (Enterococcus sp.; strain GC 4556): 64 µg/mL (≈ 45.4 µM)
MIC Enterococcus faecium (GC 4557) (Enterococcus sp.; strain GC 4557): 4 µg/mL (≈ 2.84 µM)
MIC Enterococcus avium (GC 4558) (Enterococcus sp.; strain GC 4558): 64 µg/mL (≈ 45.4 µM)
MIC Coagulase Negative Staphylococcus (GC 4547) (Staphylococcus sp.): 8 µg/mL (≈ 5.68 µM)
MIC Coagulase Negative Staphylococcus (GC 4548) (Staphylococcus sp.): 8 µg/mL (≈ 5.68 µM)
MIC Coagulase Negative Staphylococcus (GC 4549) (Staphylococcus sp.): 4 µg/mL (≈ 2.84 µM)
MIC Coagulase Negative Staphylococcus (GC 4551) (Staphylococcus sp.): 16 µg/mL (≈ 11.4 µM)
MIC Coagulase Negative Staphylococcus (ID-3941) (Staphylococcus sp.): 4 µg/mL (≈ 2.84 µM)
MIC Staphylococcus aureus (ATCC 29213) (Staphylococcus sp.): 16 µg/mL (≈ 11.4 µM)
MIC Staphylococcus aureus (GC 1131) (Staphylococcus sp.): 8 µg/mL (≈ 5.68 µM)
MIC Staphylococcus aureus (GC 4541) (Staphylococcus sp.): 8 µg/mL (≈ 5.68 µM)
MIC Staphylococcus aureus (GC 4542) (Staphylococcus sp.): 8 µg/mL (≈ 5.68 µM)
MIC Staphylococcus aureus (GC 4544) (Staphylococcus sp.): 16 µg/mL (≈ 11.4 µM)
MIC Staphylococcus aureus (GC 4545) (Staphylococcus sp.): 8 µg/mL (≈ 5.68 µM)
MIC Staphylococcus aureus-SMITH (GC 4543) (Staphylococcus sp.): 8 µg/mL (≈ 5.68 µM)
MIC Staphylococcus aureus (ATCC 29213) (Staphylococcus sp.; strain ATCC 29213): 16 µg/mL (≈ 11.4 µM)
MIC Staphylococcus aureus (GC 1131) (Staphylococcus sp.; strain GC 1131): 8 µg/mL (≈ 5.68 µM)
MIC Staphylococcus aureus (GC 4541) (Staphylococcus sp.; strain GC 4541): 8 µg/mL (≈ 5.68 µM)
MIC Staphylococcus aureus (GC 4542) (Staphylococcus sp.; strain GC 4542): 8 µg/mL (≈ 5.68 µM)
MIC Staphylococcus aureus-SMITH (GC 4543) (Staphylococcus sp.; strain GC 4543): 8 µg/mL (≈ 5.68 µM)
MIC Staphylococcus aureus (GC 4544) (Staphylococcus sp.; strain GC 4544): 16 µg/mL (≈ 11.4 µM)
MIC Staphylococcus aureus (GC 4545) (Staphylococcus sp.; strain GC 4545): 8 µg/mL (≈ 5.68 µM)
MIC Coagulase Negative Staphylococcus (GC 4547) (Staphylococcus sp.; strain GC 4547): 8 µg/mL (≈ 5.68 µM)
MIC Coagulase Negative Staphylococcus (GC 4548) (Staphylococcus sp.; strain GC 4548): 8 µg/mL (≈ 5.68 µM)
MIC Coagulase Negative Staphylococcus (GC 4549) (Staphylococcus sp.; strain GC 4549): 4 µg/mL (≈ 2.84 µM)
MIC Coagulase Negative Staphylococcus (GC 4551) (Staphylococcus sp.; strain GC 4551): 16 µg/mL (≈ 11.4 µM)
MIC Coagulase Negative Staphylococcus (ID-3941) (Staphylococcus sp.; strain ID-3941): 4 µg/mL (≈ 2.84 µM)
MIC Streptococcus agalactiae (GC 4564) (Streptococcus sp.): 4 µg/mL (≈ 2.84 µM)
MIC Streptococcus pneumoniae (GC 4565) (Streptococcus sp.): 1 µg/mL (≈ 0.71 µM)
MIC Streptococcus pyogenes (ID-3187) (Streptococcus sp.): 2 µg/mL (≈ 1.42 µM)
MIC Streptococcus agalactiae (GC 4564) (Streptococcus sp.; strain GC 4564): 4 µg/mL (≈ 2.84 µM)
MIC Streptococcus pneumoniae (GC 4565) (Streptococcus sp.; strain GC 4565): 1 µg/mL (≈ 0.71 µM)
MIC Streptococcus pyogenes (ID-3187) (Streptococcus sp.; strain ID-3187): 2 µg/mL (≈ 1.42 µM)
MIC Escherichia coli (ATCC 25922) (Escherichia coli): >64 µg/mL
MIC Escherichia coli (GC 4559) (Escherichia coli): >64 µg/mL
MIC Escherichia coli (GC 4560) (Escherichia coli): 2 µg/mL (≈ 1.42 µM)
SMILES: CCCCCNC(=O)OCC1OC(OC2C(CO)OC(Oc3ccc(CC4NC(=O)C(C(C)c5ccccc5)NC(=O)CNC(=O)C(CO)NC(=O)C(C(O)C5CNC(=N)N5C5OC(CO)C(O)C(O)C5O)NC(=O)C(C(O)C5CNC(=N)N5)NC4=O)cc3)C(O)C2O)C(O)C(O)C1O (centres unmarked) [Example 251b]
MIC Staphylococcus haemolyticus (GC 4546) (Staphylococcus sp.): 8 µg/mL (≈ 5.68 µM)
MIC Staphylococcus haemolyticus (GC 4546) (Staphylococcus sp.; strain GC 4546): 8 µg/mL (≈ 5.68 µM)
